Positions of bridges follow the written chain, without caps; N, C: chain ends. Non-standard residues stand in square brackets, D forms with d. Residues, ends and D or L forms follow the SMILES beside them. Groups on a side chain read outwards from the residue. Arg(Me2s) = CN=C(NC)NCCC[C@H](N)C(=O)O; Arg(Me) = CNC(=N)NCCC[C@H](N)C(=O)O; hArg = N=C(N)NCCCC[C@H](N)C(=O)O; Pra = C#CC[C@H](N)C(=O)O
How the values were obtained:
hNav1.7 = hNav1.7 (Homo sapiens, UniProt Q15858); assay: cell-based; details: Nav1.7 Use IC50
Sequence of hNav1.7 (Q15858 whole entry, looked up): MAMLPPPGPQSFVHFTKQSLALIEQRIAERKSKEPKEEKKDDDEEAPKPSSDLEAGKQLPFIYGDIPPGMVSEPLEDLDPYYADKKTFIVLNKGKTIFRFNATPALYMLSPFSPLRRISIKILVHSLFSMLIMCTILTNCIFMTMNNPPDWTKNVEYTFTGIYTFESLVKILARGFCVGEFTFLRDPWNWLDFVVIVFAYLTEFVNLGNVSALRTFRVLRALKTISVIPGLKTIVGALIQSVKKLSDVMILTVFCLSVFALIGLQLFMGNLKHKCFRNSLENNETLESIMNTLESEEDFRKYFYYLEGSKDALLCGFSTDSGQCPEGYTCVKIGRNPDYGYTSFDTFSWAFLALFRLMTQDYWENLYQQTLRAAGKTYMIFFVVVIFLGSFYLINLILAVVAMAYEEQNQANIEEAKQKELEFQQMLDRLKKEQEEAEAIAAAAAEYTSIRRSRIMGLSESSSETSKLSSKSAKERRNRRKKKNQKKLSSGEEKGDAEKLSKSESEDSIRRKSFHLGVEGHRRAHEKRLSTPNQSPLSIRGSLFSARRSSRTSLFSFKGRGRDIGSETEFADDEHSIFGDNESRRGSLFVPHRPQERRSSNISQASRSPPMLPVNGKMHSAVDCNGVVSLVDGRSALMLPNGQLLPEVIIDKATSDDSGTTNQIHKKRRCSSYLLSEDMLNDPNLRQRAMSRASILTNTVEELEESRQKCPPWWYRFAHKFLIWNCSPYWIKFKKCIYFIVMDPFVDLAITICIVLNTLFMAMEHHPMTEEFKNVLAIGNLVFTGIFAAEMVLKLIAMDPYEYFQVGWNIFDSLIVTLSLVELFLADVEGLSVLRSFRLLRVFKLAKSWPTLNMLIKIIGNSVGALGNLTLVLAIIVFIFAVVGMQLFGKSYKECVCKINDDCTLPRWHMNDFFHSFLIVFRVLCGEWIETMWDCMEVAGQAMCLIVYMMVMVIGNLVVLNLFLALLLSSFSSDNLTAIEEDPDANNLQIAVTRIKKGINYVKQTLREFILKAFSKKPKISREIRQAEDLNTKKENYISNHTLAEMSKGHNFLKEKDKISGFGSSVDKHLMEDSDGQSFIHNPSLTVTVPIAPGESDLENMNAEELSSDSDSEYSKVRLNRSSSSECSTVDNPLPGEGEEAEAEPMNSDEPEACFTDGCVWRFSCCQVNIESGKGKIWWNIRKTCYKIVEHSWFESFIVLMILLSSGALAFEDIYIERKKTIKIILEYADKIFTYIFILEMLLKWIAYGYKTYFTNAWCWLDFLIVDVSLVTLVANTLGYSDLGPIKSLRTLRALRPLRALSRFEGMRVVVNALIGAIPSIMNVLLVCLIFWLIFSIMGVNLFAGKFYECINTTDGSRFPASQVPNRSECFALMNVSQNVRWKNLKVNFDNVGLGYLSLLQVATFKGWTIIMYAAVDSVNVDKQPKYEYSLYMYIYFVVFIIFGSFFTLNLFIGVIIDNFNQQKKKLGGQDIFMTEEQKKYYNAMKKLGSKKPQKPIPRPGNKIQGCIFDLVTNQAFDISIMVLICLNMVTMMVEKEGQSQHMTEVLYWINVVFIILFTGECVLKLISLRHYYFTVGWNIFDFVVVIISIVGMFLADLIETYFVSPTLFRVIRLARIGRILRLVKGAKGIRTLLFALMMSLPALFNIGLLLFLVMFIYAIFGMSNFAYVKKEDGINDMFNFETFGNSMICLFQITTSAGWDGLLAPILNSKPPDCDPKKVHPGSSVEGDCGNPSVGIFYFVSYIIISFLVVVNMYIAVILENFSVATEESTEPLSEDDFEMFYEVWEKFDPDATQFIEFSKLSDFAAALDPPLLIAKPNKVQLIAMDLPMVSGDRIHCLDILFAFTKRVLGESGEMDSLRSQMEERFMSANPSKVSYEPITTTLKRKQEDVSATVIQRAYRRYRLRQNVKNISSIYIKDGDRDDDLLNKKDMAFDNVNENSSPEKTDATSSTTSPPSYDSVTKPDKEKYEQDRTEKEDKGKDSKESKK

hNav1.5 = hNav1.5 (Homo sapiens, UniProt Q14524); assay: cell-based
Sequence of hNav1.5 (Q14524 whole entry, looked up): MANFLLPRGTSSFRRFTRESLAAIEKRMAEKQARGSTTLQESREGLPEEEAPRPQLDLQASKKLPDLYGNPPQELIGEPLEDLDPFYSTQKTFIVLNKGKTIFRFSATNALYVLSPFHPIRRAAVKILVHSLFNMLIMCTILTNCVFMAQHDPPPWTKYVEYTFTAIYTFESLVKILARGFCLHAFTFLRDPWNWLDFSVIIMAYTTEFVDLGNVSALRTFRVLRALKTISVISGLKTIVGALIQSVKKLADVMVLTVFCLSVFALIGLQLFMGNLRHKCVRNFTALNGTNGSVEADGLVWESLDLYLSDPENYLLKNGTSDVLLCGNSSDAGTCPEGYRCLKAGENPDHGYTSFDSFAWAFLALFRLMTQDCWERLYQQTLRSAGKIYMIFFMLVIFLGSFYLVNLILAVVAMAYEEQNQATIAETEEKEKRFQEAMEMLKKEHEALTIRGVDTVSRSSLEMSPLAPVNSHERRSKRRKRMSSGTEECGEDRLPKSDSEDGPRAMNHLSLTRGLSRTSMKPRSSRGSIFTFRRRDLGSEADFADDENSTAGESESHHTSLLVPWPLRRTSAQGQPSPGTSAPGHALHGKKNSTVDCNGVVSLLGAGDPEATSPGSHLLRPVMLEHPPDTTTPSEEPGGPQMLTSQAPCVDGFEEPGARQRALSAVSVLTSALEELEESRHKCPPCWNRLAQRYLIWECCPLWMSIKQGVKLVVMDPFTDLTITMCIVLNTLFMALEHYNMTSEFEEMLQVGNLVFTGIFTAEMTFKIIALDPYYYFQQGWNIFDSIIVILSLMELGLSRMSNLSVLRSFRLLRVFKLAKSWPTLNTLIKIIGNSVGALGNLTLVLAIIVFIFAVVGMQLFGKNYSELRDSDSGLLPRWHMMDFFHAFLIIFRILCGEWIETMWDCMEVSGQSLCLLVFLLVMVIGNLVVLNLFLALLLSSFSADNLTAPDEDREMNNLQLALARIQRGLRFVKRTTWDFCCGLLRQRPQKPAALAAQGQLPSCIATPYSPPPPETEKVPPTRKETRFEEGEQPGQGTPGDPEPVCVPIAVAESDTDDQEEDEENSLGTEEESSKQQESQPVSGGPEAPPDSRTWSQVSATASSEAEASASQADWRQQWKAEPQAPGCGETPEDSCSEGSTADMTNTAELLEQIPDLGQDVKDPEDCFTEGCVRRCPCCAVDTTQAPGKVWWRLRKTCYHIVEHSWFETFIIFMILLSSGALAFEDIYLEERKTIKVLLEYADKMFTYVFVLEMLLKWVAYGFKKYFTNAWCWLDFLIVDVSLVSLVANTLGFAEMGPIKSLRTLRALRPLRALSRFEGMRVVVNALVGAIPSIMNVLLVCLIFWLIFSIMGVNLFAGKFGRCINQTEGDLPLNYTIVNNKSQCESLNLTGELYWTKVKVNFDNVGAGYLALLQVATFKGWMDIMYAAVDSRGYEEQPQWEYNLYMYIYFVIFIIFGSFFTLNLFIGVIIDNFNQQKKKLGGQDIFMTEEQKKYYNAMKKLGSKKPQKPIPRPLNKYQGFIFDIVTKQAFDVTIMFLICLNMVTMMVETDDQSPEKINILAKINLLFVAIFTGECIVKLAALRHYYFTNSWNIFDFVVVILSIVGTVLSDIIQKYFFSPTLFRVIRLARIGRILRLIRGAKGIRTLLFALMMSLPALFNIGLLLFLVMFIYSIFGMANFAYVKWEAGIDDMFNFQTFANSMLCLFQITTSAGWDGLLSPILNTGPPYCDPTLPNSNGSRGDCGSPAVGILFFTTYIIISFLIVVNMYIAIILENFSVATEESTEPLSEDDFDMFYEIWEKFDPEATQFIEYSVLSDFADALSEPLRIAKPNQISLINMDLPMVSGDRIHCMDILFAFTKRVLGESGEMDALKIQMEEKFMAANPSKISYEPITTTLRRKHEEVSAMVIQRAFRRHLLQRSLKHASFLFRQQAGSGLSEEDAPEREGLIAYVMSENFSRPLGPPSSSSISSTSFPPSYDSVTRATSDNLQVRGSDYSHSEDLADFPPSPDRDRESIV

Row | Structure (SMILES) | IC50 (hNav1.7) | IC50 (hNav1.5)
1 | C#CC[C@H](NC(C)=O)C(=O)NCCCC[C@@H]1NC(=O)[C@H](CC(=O)O)NC(=O)[C@@H]2CCCN2C(=O)[C@H]([C@@H](C)CC)NC(=O)[C@@H]2CSSC[C@@H]3NC(=O)[C@H](C(C)C)NC(=O)[C@H](CC(C)C)NC(=O)[C@H](CC(N)=O)NC(=O)[C@@H]4CCCN4C(=O)[C@H](CCCNC(=N)N)NC(=O)[C@H](CSSC[C@H](NC(=O)[C@@H](N)CC(=O)O)C(=O)N[C@@H](CC(C)C)C(=O)NCC(=O)N[C@@H](C)C(=O)N[C@@H](Cc4ccccc4)C(=O)N[C@@H](CCCNC(=N)N)C(=O)N[C@@H](CCCCN)C(=O)N2)NC(=O)[C@H](CSSC[C@@H](C(=O)N[C@@H](CCCCN)C(=O)N[C@@H](Cc2ccc(O)cc2)C(=O)N[C@H](C(=O)N[C@@H](Cc2ccccc2)C(N)=O)C(C)C)NC(=O)[C@H](Cc2c[nH]c4ccccc24)NC(=O)[C@H](CCCCN)NC(=O)[C@H](Cc2c[nH]cn2)NC(=O)[C@H]([C@@H](C)O)NC(=O)[C@H](CCCNC(=N)N)NC(=O)[C@H](CO)NC3=O)NC(=O)[C@H](CCCCN)NC(=O)[C@H](CC(=O)O)NC1=O [[Ala5;Phe6;K(Ac-Pra)13]GpTx-1(1-34)] (H-DCLGAFRKCIPDK([Pra-Ac])DKCCRPNLVCSRTHKWCKYVF-NH2; disulfide 2-17, 9-23, 16-30) | 11 nM | > 10000 nM
2 | CC[C@H](C)[C@@H]1NC(=O)[C@@H]2CSSC[C@@H]3NC(=O)[C@H](C(C)C)NC(=O)[C@H](CC(C)C)NC(=O)[C@H](CC(N)=O)NC(=O)[C@@H]4CCCN4C(=O)[C@H](CCCNC(=N)N)NC(=O)[C@H](CSSC[C@H](NC(=O)[C@@H](N)CC(=O)O)C(=O)N[C@@H](CC(C)C)C(=O)NCC(=O)N[C@@H](C)C(=O)N[C@@H](CCSC)C(=O)N[C@@H](CCCNC(=N)N)C(=O)N[C@@H](CCCCN)C(=O)N2)NC(=O)[C@H](CSSC[C@@H](C(=O)N[C@@H](CCCCN)C(=O)N[C@@H](Cc2ccc(O)cc2)C(=O)N[C@H](C(=O)N[C@@H](Cc2ccccc2)C(N)=O)C(C)C)NC(=O)[C@H](Cc2c[nH]c4ccccc24)NC(=O)[C@H](CCCNC(=N)NC)NC(=O)[C@H](Cc2c[nH]cn2)NC(=O)[C@H]([C@@H](C)O)NC(=O)[C@H](CCCNC(=N)N)NC(=O)[C@H](CO)NC3=O)NC(=O)[C@H](CCCCN)NC(=O)[C@H](CC(=O)O)NC(=O)[C@H](CC(N)=O)NC(=O)[C@H](CC(=O)O)NC(=O)[C@@H]2CCCN2C1=O [[Ala5;R(Me)28]GpTx-1(1-34)] (H-DCLGAMRKCIPDNDKCCRPNLVCSRTH[Arg(Me)]WCKYVF-NH2; disulfide 2-17, 9-23, 16-30) | 51 nM | > 10000 nM
3 | CC[C@H](C)[C@@H]1NC(=O)[C@@H]2CSSC[C@@H]3NC(=O)[C@H](C(C)C)NC(=O)[C@H](CC(C)C)NC(=O)[C@H](CC(N)=O)NC(=O)[C@@H]4CCCN4C(=O)[C@H](CCCNC(=N)N)NC(=O)[C@H](CSSC[C@H](NC(=O)[C@@H](N)CC(=O)O)C(=O)N[C@@H](CC(C)C)C(=O)NCC(=O)N[C@@H](C)C(=O)N[C@@H](CCSC)C(=O)N[C@@H](CCCNC(=N)N)C(=O)N[C@@H](CCCCN)C(=O)N2)NC(=O)[C@H](CSSC[C@@H](C(=O)N[C@@H](CCCCN)C(=O)N[C@@H](Cc2ccc(O)cc2)C(=O)N[C@H](C(=O)N[C@@H](Cc2ccccc2)C(N)=O)C(C)C)NC(=O)[C@H](Cc2c[nH]c4ccccc24)NC(=O)[C@H](CCCNC(=NC)NC)NC(=O)[C@H](Cc2c[nH]cn2)NC(=O)[C@H]([C@@H](C)O)NC(=O)[C@H](CCCNC(=N)N)NC(=O)[C@H](CO)NC3=O)NC(=O)[C@H](CCCCN)NC(=O)[C@H](CC(=O)O)NC(=O)[C@H](CC(N)=O)NC(=O)[C@H](CC(=O)O)NC(=O)[C@@H]2CCCN2C1=O [[Ala5;SDMA28]GpTx-1(1-34)] (H-DCLGAMRKCIPDNDKCCRPNLVCSRTH[Arg(Me2s)]WCKYVF-NH2; disulfide 2-17, 9-23, 16-30) | 41 nM | > 10000 nM
4 | CC[C@H](C)[C@@H]1NC(=O)[C@@H]2CSSC[C@@H]3NC(=O)[C@H](C(C)C)NC(=O)[C@H](CC(C)C)NC(=O)[C@H](CC(N)=O)NC(=O)[C@@H]4CCCN4C(=O)[C@H](CCCNC(=N)N)NC(=O)[C@H](CSSC[C@H](NC(=O)[C@@H](N)CC(=O)O)C(=O)N[C@@H](CC(C)C)C(=O)NCC(=O)N[C@@H](C)C(=O)N[C@@H](CCSC)C(=O)N[C@@H](CCCNC(=N)N)C(=O)N[C@@H](CCCCN)C(=O)N2)NC(=O)[C@H](CSSC[C@@H](C(=O)N[C@@H](CCCCN)C(=O)N[C@@H](Cc2ccc(O)cc2)C(=O)N[C@H](C(=O)N[C@@H](Cc2ccccc2)C(N)=O)C(C)C)NC(=O)[C@H](Cc2c[nH]c4ccccc24)NC(=O)[C@H](CO)NC(=O)[C@H](Cc2c[nH]cn2)NC(=O)[C@H]([C@@H](C)O)NC(=O)[C@H](CCCNC(=N)N)NC(=O)[C@H](CO)NC3=O)NC(=O)[C@H](CCCCN)NC(=O)[C@H](CC(=O)O)NC(=O)[C@H](CC(N)=O)NC(=O)[C@H](CC(=O)O)NC(=O)[C@@H]2CCCN2C1=O [[Ala5;Ser28]GpTx-1(1-34)] (H-DCLGAMRKCIPDNDKCCRPNLVCSRTHSWCKYVF-NH2; disulfide 2-17, 9-23, 16-30) | 45 nM | > 10000 nM
5 | CC[C@H](C)[C@@H]1NC(=O)[C@@H]2CSSC[C@@H]3NC(=O)[C@H](C(C)C)NC(=O)[C@H](CC(C)C)NC(=O)[C@H](CC(N)=O)NC(=O)[C@@H]4CCCN4C(=O)[C@H](CCCNC(=N)N)NC(=O)[C@H](CSSC[C@H](NC(=O)[C@@H](N)CC(=O)O)C(=O)N[C@@H](CC(C)C)C(=O)NCC(=O)N[C@@H](C)C(=O)N[C@@H](CCSC)C(=O)N[C@@H](CCCNC(=N)N)C(=O)N[C@@H](CCCCN)C(=O)N2)NC(=O)[C@H](CSSC[C@@H](C(=O)N[C@@H](CCCCN)C(=O)N[C@@H](Cc2ccc(O)cc2)C(=O)N[C@H](C(=O)N[C@@H](Cc2ccccc2)C(N)=O)C(C)C)NC(=O)[C@H](Cc2c[nH]c4ccccc24)NC(=O)[C@H](CCCCNC(=N)N)NC(=O)[C@H](Cc2c[nH]cn2)NC(=O)[C@H]([C@@H](C)O)NC(=O)[C@H](CCCNC(=N)N)NC(=O)[C@H](CO)NC3=O)NC(=O)[C@H](CCCCN)NC(=O)[C@H](CC(=O)O)NC(=O)[C@H](CC(N)=O)NC(=O)[C@H](CC(=O)O)NC(=O)[C@@H]2CCCN2C1=O [[Ala5;hArg28]GpTx-1(1-34)] (H-DCLGAMRKCIPDNDKCCRPNLVCSRTH[hArg]WCKYVF-NH2; disulfide 2-17, 9-23, 16-30) | 14 nM | > 10000 nM
6 | CC[C@H](C)[C@@H]1NC(=O)[C@@H]2CSSC[C@@H]3NC(=O)[C@H](C)NC(=O)[C@H](CC(C)C)NC(=O)[C@H](CC(N)=O)NC(=O)[C@@H]4CCCN4C(=O)[C@H](CCCNC(=N)N)NC(=O)[C@H](CSSC[C@H](NC(=O)[C@@H](N)CC(=O)O)C(=O)N[C@@H](CC(C)C)C(=O)NCC(=O)N[C@@H](Cc4ccccc4)C(=O)N[C@@H](CCSC)C(=O)N[C@@H](CCCNC(=N)N)C(=O)N[C@@H](CCCCN)C(=O)N2)NC(=O)[C@H](CSSC[C@@H](C(=O)N[C@@H](CCCCN)C(=O)N[C@@H](Cc2ccc(O)cc2)C(=O)N[C@H](C(=O)N[C@@H](Cc2ccccc2)C(N)=O)C(C)C)NC(=O)[C@H](Cc2c[nH]c4ccccc24)NC(=O)[C@H](CCCCN)NC(=O)[C@H](Cc2cnc[nH]2)NC(=O)[C@H]([C@@H](C)O)NC(=O)[C@H](CCCNC(=N)N)NC(=O)[C@H](CO)NC3=O)NC(=O)[C@H](CCCCN)NC(=O)[C@H](CC(=O)O)NC(=O)[C@H](CC(N)=O)NC(=O)[C@H](CC(=O)O)NC(=O)[C@@H]2CCCN2C1=O [[Ala22]GpTx-1(1-34)] (H-DCLGFMRKCIPDNDKCCRPNLACSRTHKWCKYVF-NH2; disulfide 2-17, 9-23, 16-30) | 6 nM | 6200 nM
7 | CC[C@H](C)[C@@H]1NC(=O)[C@@H]2CSSC[C@@H]3NC(=O)[C@H](C(C)C)NC(=O)[C@H](CC(C)C)NC(=O)[C@H](CC(N)=O)NC(=O)[C@@H]4CCCN4C(=O)[C@H](CCCNC(=N)N)NC(=O)[C@H](CSSC[C@H](NC(=O)[C@@H](N)CC(=O)O)C(=O)N[C@@H](CC(C)C)C(=O)NCC(=O)N[C@@H](Cc4ccccc4)C(=O)N[C@@H](CCSC)C(=O)N[C@@H](CCCNC(=N)N)C(=O)N[C@@H](CCCCN)C(=O)N2)NC(=O)[C@H](CSSC[C@@H](C(=O)N[C@@H](CCCCN)C(=O)N[C@@H](Cc2ccc(O)cc2)C(=O)N[C@H](C(=O)N[C@@H](Cc2ccccc2)C(N)=O)C(C)C)NC(=O)[C@H](Cc2c[nH]c4ccccc24)NC(=O)[C@H](CCCCN)NC(=O)[C@H](Cc2cnc[nH]2)NC(=O)[C@H]([C@@H](C)O)NC(=O)[C@H](C)NC(=O)[C@H](CO)NC3=O)NC(=O)[C@H](CCCCN)NC(=O)[C@H](CC(=O)O)NC(=O)[C@H](CC(N)=O)NC(=O)[C@H](CC(=O)O)NC(=O)[C@@H]2CCCN2C1=O [[Ala25]GpTx-1(1-34)] (H-DCLGFMRKCIPDNDKCCRPNLVCSATHKWCKYVF-NH2; disulfide 2-17, 9-23, 16-30) | 12 nM | 10000 nM
8 | CC[C@H](C)[C@@H]1NC(=O)[C@@H]2CSSC[C@@H]3NC(=O)[C@H](C(C)C)NC(=O)[C@H](CC(C)C)NC(=O)[C@H](CC(N)=O)NC(=O)[C@@H]4CCCN4C(=O)[C@H](CCCNC(=N)N)NC(=O)[C@H](CSSC[C@H](NC(=O)[C@@H](N)CC(=O)O)C(=O)N[C@@H](CC(C)C)C(=O)N[C@@H](CCCNC(=N)N)C(=O)N[C@@H](CCSC)C(=O)N[C@@H](CCSC)C(=O)N[C@@H](CCCNC(=N)N)C(=O)N[C@@H](CCCCN)C(=O)N2)NC(=O)[C@H](CSSC[C@@H](C(=O)N[C@@H](CCCCN)C(=O)N[C@@H](Cc2ccc(O)cc2)C(=O)N[C@H](C(=O)N[C@@H](Cc2ccccc2)C(N)=O)C(C)C)NC(=O)[C@H](Cc2c[nH]c4ccccc24)NC(=O)[C@H](CCCCN)NC(=O)[C@H](Cc2c[nH]cn2)NC(=O)[C@H]([C@@H](C)O)NC(=O)[C@H](CCCNC(=N)N)NC(=O)[C@H](CO)NC3=O)NC(=O)[C@H](CCCCN)NC(=O)[C@H](CC(=O)O)NC(=O)[C@H](CC(N)=O)NC(=O)[C@H](CC(=O)O)NC(=O)[C@@H]2CCCN2C1=O [[Arg4;Met5]GpTx-1(1-34)] (H-DCLRMMRKCIPDNDKCCRPNLVCSRTHKWCKYVF-NH2; disulfide 2-17, 9-23, 16-30) | 29 nM | 13200 nM
